Reference: the NIST ThermoML archive (doi:10.1021/acs.jced.8b00132)
Several values for one entry are separate records, joined by “and”; a condition that tells them apart may be missing. Identical values can stand only once.

Conditions: transient hot wire

O=C(C(F)(F)C(F)(F)F)C(F)(C(F)(F)F)C(F)(F)F [dodecafluoro-2-methylpentan-3-one]
Conditions	thermal conductivity
359.37 K, 187 kPa, Gas	0.01646 W/m/K
359.37 K, 7108 kPa, Liquid	0.05182 W/m/K
359.38 K, 187 kPa, Gas	0.01639 W/m/K
359.4 K, 26 kPa, Gas	0.01671 W/m/K
359.41 K, 26 kPa, Gas	0.01672 W/m/K
359.42 K, 3418 kPa, Liquid	0.04952 W/m/K
359.42 K, 3419 kPa, Liquid	0.04953 W/m/K
359.42 K, 33575 kPa, Liquid	0.06335 W/m/K
359.43 K, 33582 kPa, Liquid	0.06336 W/m/K
359.43 K, 56047 kPa, Liquid	0.07056 W/m/K
359.44 K, 17994 kPa, Liquid	0.05721 W/m/K
359.44 K, 18001 kPa, Liquid	0.05746 W/m/K
359.44 K, 56060 kPa, Liquid	0.07057 W/m/K
359.5 K, 91 kPa, Gas	0.01707 W/m/K
359.51 K, 91 kPa, Gas	0.017 W/m/K
359.51 K, 11963 kPa, Liquid	0.05441 W/m/K
359.52 K, 352 kPa, Liquid	0.04737 W/m/K and 0.04738 W/m/K
359.52 K, 353 kPa, Liquid	0.04735 W/m/K
359.52 K, 11964 kPa, Liquid	0.05441 W/m/K
359.53 K, 352 kPa, Liquid	0.04692 W/m/K
359.54 K, 43829 kPa, Liquid	0.06685 W/m/K
359.54 K, 43830 kPa, Liquid	0.06684 W/m/K
359.55 K, 24946 kPa, Liquid	0.06014 W/m/K
359.55 K, 24949 kPa, Liquid	0.06011 W/m/K
359.56 K, 256 kPa, Gas	0.01628 W/m/K
359.57 K, 256 kPa, Gas	0.01631 W/m/K
359.6 K, 7096 kPa, Liquid	0.05174 W/m/K
359.6 K, 7098 kPa, Liquid	0.05175 W/m/K
359.63 K, 33565 kPa, Liquid	0.06333 W/m/K
359.64 K, 187 kPa, Gas	0.01647 W/m/K and 0.01644 W/m/K
359.64 K, 33572 kPa, Liquid	0.06333 W/m/K
359.66 K, 18006 kPa, Liquid	0.0572 W/m/K
359.67 K, 3420 kPa, Liquid	0.04948 W/m/K
359.67 K, 3421 kPa, Liquid	0.04951 W/m/K
359.67 K, 18004 kPa, Liquid	0.05719 W/m/K
359.7 K, 26 kPa, Gas	0.0168 W/m/K and 0.01681 W/m/K
359.75 K, 11967 kPa, Liquid	0.05434 W/m/K
359.76 K, 11965 kPa, Liquid	0.05435 W/m/K
359.77 K, 353 kPa, Liquid	0.04733 W/m/K
359.78 K, 352 kPa, Liquid	0.0473 W/m/K and 0.04737 W/m/K
359.78 K, 353 kPa, Liquid	0.0473 W/m/K
359.78 K, 24941 kPa, Liquid	0.06008 W/m/K
